The source made the active and inactive calls. The calls are words filed in the database; no cut-off is given here.
How the values were obtained:
[1] = (§1) Inhibition of pig pancreatic elastase; set-up: species or system Sus scrofa
[2] = species: Sus scrofa; test: as §1

Row | Compound | Ki [1] [µM] | Activity [2]
1 | CCC1(CC)C(=O)N(c2ccc(C)cc2)C1=O | 7.46 | 
2 | CC1(C)C(=O)N(Cc2ccccc2)C1=O | 184 | 
3 | CCC1(CC)C(=O)N(Cc2ccccc2)C1=O |  | inactive
4 | CCOC(=O)CN1C(=O)C(CC)(CC)C1=O |  | inactive
5 | CCC1(CC)C(=O)N(c2ccc(OC)cc2)C1=O | 9.81 | 
6 | CCC1(CC)C(=O)N(c2ccc(C#N)cc2)C1=O | 6.02 | 

Other lines, results leading:

Row | Ki [1] [µM] | Activity [2] | Compound
7 | 10 |  | CC1(C)C(=O)N(c2ccc(Cl)cc2)C1=O
8 | 8.47 |  | CCC1(CC)C(=O)N(c2ccc(Cl)cc2)C1=O
9 | 10.2 |  | CCC1(CC)C(=O)N(c2ccccc2)C1=O

Reference: ChEMBL document CHEMBL1142246, “Azetidine-2,4-diones (4-oxo-beta-lactams) as scaffolds for designing elastase inhibitors” (J Med Chem, 2008)
